The target in one assay is T1, TLR7 (Homo sapiens, UniProt Q9NYK1).
T1 construct: expressed in transfected cells; host or cells: HEK/293 cells carrying TLR7 and an NF-kB luciferase reporter
T1 sequence (Q9NYK1 27-1049): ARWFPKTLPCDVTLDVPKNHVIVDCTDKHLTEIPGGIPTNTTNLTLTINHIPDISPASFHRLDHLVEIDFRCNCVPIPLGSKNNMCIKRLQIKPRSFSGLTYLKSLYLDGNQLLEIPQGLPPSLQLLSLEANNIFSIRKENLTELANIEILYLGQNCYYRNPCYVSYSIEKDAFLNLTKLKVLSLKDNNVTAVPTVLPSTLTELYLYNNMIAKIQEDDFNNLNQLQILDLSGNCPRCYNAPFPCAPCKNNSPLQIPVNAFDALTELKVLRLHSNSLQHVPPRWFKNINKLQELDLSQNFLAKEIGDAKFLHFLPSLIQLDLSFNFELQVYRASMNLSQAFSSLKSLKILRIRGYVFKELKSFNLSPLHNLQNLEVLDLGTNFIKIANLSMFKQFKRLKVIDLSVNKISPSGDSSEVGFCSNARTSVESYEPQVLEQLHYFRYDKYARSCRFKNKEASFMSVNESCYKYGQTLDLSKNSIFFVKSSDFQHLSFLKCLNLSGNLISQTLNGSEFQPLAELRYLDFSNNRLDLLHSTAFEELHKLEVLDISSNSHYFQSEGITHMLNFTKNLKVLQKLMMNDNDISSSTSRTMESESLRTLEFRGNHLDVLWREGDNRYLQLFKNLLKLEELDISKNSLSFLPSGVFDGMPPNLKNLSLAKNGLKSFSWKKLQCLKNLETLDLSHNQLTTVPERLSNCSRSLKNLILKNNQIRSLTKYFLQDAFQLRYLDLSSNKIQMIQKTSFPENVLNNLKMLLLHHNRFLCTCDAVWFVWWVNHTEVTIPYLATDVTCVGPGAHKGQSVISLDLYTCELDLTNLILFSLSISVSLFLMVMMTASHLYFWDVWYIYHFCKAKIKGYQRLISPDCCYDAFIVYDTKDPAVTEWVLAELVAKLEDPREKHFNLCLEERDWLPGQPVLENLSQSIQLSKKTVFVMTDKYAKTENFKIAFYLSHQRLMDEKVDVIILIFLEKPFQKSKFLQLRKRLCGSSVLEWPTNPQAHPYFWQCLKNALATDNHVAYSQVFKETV
The assay can be described thus: HEK/293 TLR7 Cell Assay. It is filed as cell-based. To be noted: TLR7/NFKb HEK cells, R848 agonist 10 uM final concentration, Steady-Glo readout; read-out: TLR7 potency. Put shortly:
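TLR7/NF-κB reporter HEK293 cells, 5000/well, cultured 24 h, then preincubated 30 min with compound before R848 agonist (10 uM final). After 5 h stimulation, Steady-Glo luciferase luminescence read.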

The target in a further assay is T2, TLR8 (Homo sapiens, UniProt Q9NR97).
T2 construct: expressed in transfected cells; host or cells: HEK/293 reporter cells (NF-kB luciferase)
T2 sequence (Q9NR97 27-1041): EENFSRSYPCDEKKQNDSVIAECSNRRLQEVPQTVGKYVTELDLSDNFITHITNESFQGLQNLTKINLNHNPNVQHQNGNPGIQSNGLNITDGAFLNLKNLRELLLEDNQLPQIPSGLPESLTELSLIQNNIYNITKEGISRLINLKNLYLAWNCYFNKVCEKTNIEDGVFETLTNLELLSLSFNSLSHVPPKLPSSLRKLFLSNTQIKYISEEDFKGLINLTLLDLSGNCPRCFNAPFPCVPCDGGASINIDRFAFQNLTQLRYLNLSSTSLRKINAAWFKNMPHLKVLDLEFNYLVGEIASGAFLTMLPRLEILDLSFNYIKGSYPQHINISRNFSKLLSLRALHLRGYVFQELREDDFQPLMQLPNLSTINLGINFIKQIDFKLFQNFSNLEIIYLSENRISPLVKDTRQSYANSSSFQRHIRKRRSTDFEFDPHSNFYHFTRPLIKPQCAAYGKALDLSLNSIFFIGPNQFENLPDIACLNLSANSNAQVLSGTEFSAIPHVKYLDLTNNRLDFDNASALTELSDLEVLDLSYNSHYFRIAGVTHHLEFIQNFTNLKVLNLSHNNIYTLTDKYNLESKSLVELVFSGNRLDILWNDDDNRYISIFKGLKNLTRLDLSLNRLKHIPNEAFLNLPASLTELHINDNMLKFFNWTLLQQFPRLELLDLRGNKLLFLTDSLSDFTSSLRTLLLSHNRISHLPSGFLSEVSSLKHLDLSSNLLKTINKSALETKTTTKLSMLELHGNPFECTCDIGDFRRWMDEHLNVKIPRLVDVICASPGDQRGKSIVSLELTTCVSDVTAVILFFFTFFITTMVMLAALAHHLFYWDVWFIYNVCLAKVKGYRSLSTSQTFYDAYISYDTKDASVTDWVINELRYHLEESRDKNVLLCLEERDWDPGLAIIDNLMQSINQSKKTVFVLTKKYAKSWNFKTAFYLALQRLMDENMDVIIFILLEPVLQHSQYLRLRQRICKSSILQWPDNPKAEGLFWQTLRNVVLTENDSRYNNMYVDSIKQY
The assay can be described thus: HEK/293 TLR8 Cell Assay. Format: cell-based. The note with it: HEK cells, R848 agonist 30 uM final concentration, Steady-Glo readout; read-out: TLR8 potency.

Consider `C[C@H]1C[C@@H](NS(=O)(=O)NC(=O)CN2CCOCC2)CN(c2ccc(C(F)(F)F)c3ncccc23)C1` [Example 203, N-{[(3R,5S)-5-methyl-1-[8-(trifluoromethyl)quinolin-5-yl]piperidin-3-yl]sulfamoyl}-2-(morpholin-4-yl)acetamide], for which the IC50 was 0.075 to 0.15 µM on TLR7 and less than 0.075 µM on TLR8.
On the same counts, the results for `Cc1ccc(N2C[C@@H](C)C[C@@H](NC(=O)C(N)C3CC3)C2)c2cccnc12` (stereo partly drawn) [Example 133, 2-Amino-2-cyclopropyl-N-[(3R,5S)-5-methyl-1-(8-methyl-quinolin-5-yl)-piperidin-3-yl]-acetamide] are less than 0.075 µM and less than 0.075 µM.
Take `C[C@@H]1CN(c2cnc(C#N)c3ncccc23)C[C@H](CN2CCS(=O)(=O)CC2)O1` [Example 376, 5-[(2S,6R)-2-(1,1-Dioxo-1lambda6-thiomorpholin-4-ylmethyl)-6-methyl-morpholin-4-yl]-[1,7]naphthyridine-8-carbonitrile]: the IC50 on TLR7 and at TLR8 was more than 0.15 µM throughout.
As to `C[C@H]1C[C@@H](NCCNS(C)(=O)=O)CN(c2ccc(C(F)(F)F)c3nccnc23)C1` [Example 23, N-{2-[(3R,5S)-5-Methyl-1-(8-trifluoromethyl-quinoxalin-5-yl)-piperidin-3-ylamino]-ethyl}-methanesulfonamide], the IC50 at TLR7 and on TLR8 was less than 0.075 µM in each case.
As for `C[C@H]1C[C@@H](NCC2COC2)CN(c2ccc(C#N)c3nccnc23)C1` [Example 47, 8-{(3S,5R)-3-Methyl-5-[(oxetan-3-ylmethyl)-amino]-piperidin-1-yl}-quinoxaline-5-carbonitrile], the IC50 at TLR7 and at TLR8 was less than 0.075 µM throughout.
Consider `C[C@@H]1CN(c2cnc(C#N)c3ncccc23)C[C@H](CN2CCN(C)CC2)O1` [Example 368, 5-[(2R,6S)-2-Methyl-6-(4-methyl-piperazin-1-ylmethyl)-morpholin-4-yl]-naphthyridine-8-carbonitrile], for which the IC50 at TLR7 and at TLR8 was less than 0.075 µM in each case.
For the compound `C[C@@H]1CN(c2cnc(C#N)c3ncccc23)C[C@H](CNC(=O)C2(F)CCNC2)O1` (stereo partly drawn) [Example 332, N-{[(2S,6R)-4-(8-cyano-1,7-naphthyridin-5-yl)-6-methylmorpholin-2-yl]methyl}-3-fluoropyrrolidine-3-carboxamide], the results for the IC50 on TLR7 and on TLR8 were 0.075 to 0.15 µM and less than 0.075 µM, respectively.
The matching figures for `CC(C)(O)CNC(=O)[C@@H]1CN(c2ccc(C#N)c3nccnc23)C[C@H](C(F)(F)F)O1` (single isomer, unassigned) [Example 285]: more than 0.15 µM and more than 0.15 µM.
On the same counts, the results for `C[C@H]1C[C@@H](NC(=O)[C@@H]2CCNC2)CN(c2ccc(C(F)(F)F)c3ncccc23)C1` [Example 204, (3R)—N-[(3R,5S)-5-methyl-1-[8-(trifluoromethyl)quinolin-5-yl]piperidin-3-yl]pyrrolidine-3-carboxamide] are less than 0.075 µM and less than 0.075 µM.
`N#Cc1ccc(N2C[C@@H](C(F)(F)F)O[C@@H](C(=O)NCC3(F)CCNCC3)C2)c2nccnc12` (single isomer, unassigned) [Example 305]: the IC50 on TLR7 and on TLR8 was less than 0.075 µM in each case.
As for `Cc1ccc(N2C[C@H](NC(=O)CC3CCN(C(C)C)CC3)CC(F)(F)C2)c2cccnc12` [Example 110, N—[(R)-5,5-Difluoro-1-(8-methyl-quinolin-5-yl)-piperidin-3-yl]-2-(1-isopropyl-piperidin-4-yl)-acetamide], the IC50 at TLR7 is less than 0.075 µM; at TLR8, more than 0.15 µM.
Turning to `C[C@H]1C[C@@H](NCC(=O)N2CCOCC2)CN(c2ccc(C(F)(F)F)c3ncccc23)C1` [Example 18, 2-{[(3R,5S)-5-methyl-1-[8-(trifluoromethyl)quinolin-5-yl]piperidin-3-yl]amino}-1-(morpholin-4-yl)ethan-1-one], the IC50 at TLR7 and on TLR8 was less than 0.075 µM each time.
Regarding `C[C@H]1C[C@@H](NCCC2CCNC2=O)CN(c2ccc(C(F)(F)F)c3ncccc23)C1` (stereo partly drawn) [Example 30, 3-{2-[(3R,5S)-5-Methyl-1-(8-trifluoromethyl-quinolin-5-yl)-piperidin-3-ylamino]-ethyl}-pyrrolidin-2-one], the IC50 at TLR7 and on TLR8 was less than 0.075 µM each time.
In the case of `CN1CCC(F)(CC(=O)N[C@@H]2C[C@H](C(F)(F)F)CN(c3ccc(C#N)c4ncncc34)C2)CC1` [Example 71, N-[(3R,5S)-1-(8-cyanoquinazolin-5-yl)-5-(trifluoromethyl)piperidin-3-yl]-2-(4-fluoro-1-methylpiperidin-4-yl)acetamide], the IC50 at TLR7 was less than 0.075 µM; on TLR8, 0.075 to 0.15 µM.
As to `CC(=O)NCCN[C@@H]1C[C@H](C)CN(c2ccc(C#N)c3nccnc23)C1` [Example 49, N-{2-[(3R,5S)-1-(8-Cyano-quinoxalin-5-yl)-5-methyl-piperidin-3-ylamino]-ethyl}-acetamide], the IC50 on TLR7 and at TLR8 was less than 0.075 µM each time.
Regarding `CC(=O)NCCN[C@@H]1C[C@H](C(F)(F)F)CN(c2ccc(C#N)c3ncccc23)C1` [Example 44, N-{2-[(3R,5S)-1-(8-Cyano-quinolin-5-yl)-5-trifluoromethyl-piperidin-3-ylamino]-ethyl}-acetamide], the IC50 at TLR7 was less than 0.075 µM; at TLR8 it was 0.075 to 0.15 µM.
Regarding `C[C@H]1C[C@@H](NCCC(N)=O)CN(c2ccc(C(F)(F)F)c3nccnc23)C1` [Example 22, 3-[(3R,5S)-5-Methyl-1-(8-trifluoromethyl-quinoxalin-5-yl)-piperidin-3-ylamino]-propionamide], the IC50 at TLR7 and at TLR8 was less than 0.075 µM throughout.
Take `C[C@H]1C[C@@H](NC(=O)C2CCNCC2)CN(c2ccc(C(F)(F)F)c3ncccc23)C1` [Example 179, Piperidine-4-carboxylic acid [(3R,5S)-5-methyl-1-(8-trifluoromethyl-quinolin-5-yl)-piperidin-3-yl]-amide]: the IC50 at TLR7 and on TLR8 was less than 0.075 µM in each case.
In the case of `C[C@H]1C[C@@H](NC(=O)[C@@H]2COCCN2)CN(c2ccc(C#N)c3nccnc23)C1` [Example 208, (3S)—N-[(3R,5S)-1-(8-cyanoquinoxalin-5-yl)-5-methylpiperidin-3-yl]morpholine-3-carboxamide], the IC50 is 0.075 to 0.15 µM at TLR7 and less than 0.075 µM on TLR8.
Consider `COc1ncc(N2C[C@@H](C)C[C@@H](N)C2)c2cccnc12` [Example 151, (3R,5S)-1-(8-Methoxy-[1,7]naphthyridin-5-yl)-5-methyl-piperidin-3-ylamine], for which the IC50 on TLR7 and at TLR8 was less than 0.075 µM throughout.

Source of the values: US20210300940A1 (Merck Patent GmbH, priority 2018, published 2021).
